Data: US6620422B1, “Compositions containing a peptide and polylactic-glycolic acid suitable for preparing subcutaneous implants with an extended release period” (Mediolanum Farmaceutici S.p.A., priority 1998, dated 2003)

Assay: physchem

pKa (pKa): 9.7
pKa (pKa (first value)): 6.15
pKa (pKa (third printed value)): 12
Structure (SMILES): CCNC(=O)[C@@H]1CCCN1C(=O)[C@H](CCCNC(=N)N)NC(=O)[C@H](CC(C)C)NC(=O)[C@@H](Cc1c(C)[nH]c2ccccc12)NC(=O)[C@H](Cc1ccc(O)cc1)NC(=O)[C@H](CO)NC(=O)[C@H](Cc1c[nH]c2ccccc12)NC(=O)[C@H](Cc1c[nH]cn1)NC(=O)[C@@H]1CCC(=O)N1 [avoreline, 5-oxo-L-prolyl-L-histidil-L-tryptophil-L-seryl-L-tyrosil-2-methyl-D-tryptophil-L-leucyl-L-arginyl-N-ethyl-prolylamide]
